Data set [1] is described as follows: Pharmacokinetics after intravenous administration in the anaesthetised pig. In kind it is in vivo. The note with it: for clearance, compound (I) vs fluticasone propionate (in words): intravenous 0.1 mg/kg; for pharmacokinetic parameters, compound (I) vs fluticasone propionate (in words): intravenous mixture of the two compounds at 0.1 mg/kg. An excerpt: The clearance of these two glucocorticoids is similar is this experimental pig model.

The next data set concerns NFκB. Kind of data set: Transrepression (NFκB): firefly luciferase NFκB reporter in TNFα-stimulated A549 cells. In kind it is cell-based. Conditions: Homo sapiens, TNFα 0.5 ng/ml, read-out: Transrepression (NFκB) ED50. The text has this:
The glucocorticoid receptor (GR) can function in at least two distinct mechanisms, by upregulating gene expression through the direct binding of GR to specific sequences in gene promotors, and by downregulating gene expression that is being driven by other transcription factors (such as NFκB or AP-1) through their direct interaction with GR.
The first cell line contains the firefly luciferase reporter gene under the control of a synthetic promoter that specifically responds to activation of the transcription factor NFκB when stimulated with TNFα. The second cell line contains the renilla luciferase reporter gene under the control of a synthetic promotor that comprises 3 copies of the consensus glucocorticoid response element, and which responds to direct stimulation by glucocorticoids. Simultaneous measurement of transactivation and transrepression was conducted by mixing the two cell lines in a 1:1 ratio in 96 well plate (40,000 cells per well) and growing overnight at 37° C. Test compounds were dissolved in DMSO, and added to the cells at a final DMSO concentration of 0.7%. After incubation for 1 h 0.5 ng/ml TNFα (R&D Systems) was added and after a further 15 hours at 37° C., the levels of firefly and renilla luciferase were measured using the Packard Firelite kit following the manufacturers' directions. Dose response curves were constructed from which EC50 values were determined.

Another data set deals with T1, glucocorticoid receptor (Homo sapiens, UniProt P04150).
T1 sequence (P04150 1-777): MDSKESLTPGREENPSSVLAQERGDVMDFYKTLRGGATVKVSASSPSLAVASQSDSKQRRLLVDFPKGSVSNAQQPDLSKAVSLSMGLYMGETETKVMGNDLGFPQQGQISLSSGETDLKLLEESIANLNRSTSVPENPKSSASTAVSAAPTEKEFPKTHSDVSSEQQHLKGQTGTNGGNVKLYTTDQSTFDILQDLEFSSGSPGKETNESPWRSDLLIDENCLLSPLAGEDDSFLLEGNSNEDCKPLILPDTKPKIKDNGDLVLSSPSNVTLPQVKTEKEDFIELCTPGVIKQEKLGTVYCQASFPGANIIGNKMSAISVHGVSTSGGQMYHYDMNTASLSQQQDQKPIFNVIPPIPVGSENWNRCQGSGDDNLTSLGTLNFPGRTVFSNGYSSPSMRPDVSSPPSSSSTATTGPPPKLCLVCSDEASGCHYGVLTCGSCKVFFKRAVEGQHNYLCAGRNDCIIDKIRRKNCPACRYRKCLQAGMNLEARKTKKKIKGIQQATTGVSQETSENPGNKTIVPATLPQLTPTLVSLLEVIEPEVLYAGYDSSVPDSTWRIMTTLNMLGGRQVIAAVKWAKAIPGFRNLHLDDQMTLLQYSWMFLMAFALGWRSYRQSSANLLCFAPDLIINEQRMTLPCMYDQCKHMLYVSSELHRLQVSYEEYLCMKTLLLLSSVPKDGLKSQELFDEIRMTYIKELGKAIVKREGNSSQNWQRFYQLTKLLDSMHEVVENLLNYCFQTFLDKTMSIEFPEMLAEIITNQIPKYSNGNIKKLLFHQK
In words: In vitro functional glucocorticoid assays (metabolite vs parent). In kind it is cell-based. An excerpt:
Compound (I) undergoes highly efficient hepatic metabolism to yield the 17-β carboxylic acid (X) as the sole major metabolite in rat and human in vitro systems.

From patent US20120321565A1, “PHARMACEUTICAL COMPOSITIONS COMPRISING 17ALPHA-FURANYLESTERS OF 17BETA-CARBOTHIATE ANDROSTANES WITH A MUSCARINIC RECEPTOR ANTAGONIST” (GlaxoSmithKline Intellectual Property Management Limited, priority 2002, published 2012) come the findings set out here.

For the molecule `CCC(=O)O[C@]1(C(=O)SCF)[C@H](C)C[C@H]2[C@@H]3C[C@H](F)C4=CC(=O)C=C[C@]4(C)[C@@]3(F)[C@@H](O)C[C@@]21C` [Fluticasone propionate, 6α, 9α-Difluoro-17α-(1-oxopropoxy)-11β-hydroxy-16α-methyl-3-oxo-androsta-1,4-diene-17β-carbothioic acid S-fluoromethyl ester, reference compound], in data set [1], the “clearance, compound (I) vs fluticasone propionate (in words)” value is reported as “similar” and the “pharmacokinetic parameters, compound (I) vs fluticasone propionate (in words)” value is given as “the same”.

`C[C@@H]1CC2C3C[C@H](F)C4=CC(=O)C=C[C@]4(C)[C@@]3(F)[C@@H](O)C[C@]2(C)[C@@]1(OC(=O)c1ccco1)C(=O)SCF` (stereo partly drawn) [Compound of Formula (I), 6α, 9α-Difluoro-17α-[(2-furanylcarbonyl)oxy]-11β-hydroxy-16α-methyl-3-oxo-androsta-1,4-diene-17β-carbothioic acid S-fluoromethyl ester]: in data set [1], the “clearance, compound (I) vs fluticasone propionate (in words)” value is given as “similar” and the “pharmacokinetic parameters, compound (I) vs fluticasone propionate (in words)” value is given as “the same”.

On to `C[C@@H]1CC2C3C[C@H](F)C4=CC(=O)C=C[C@]4(C)[C@@]3(F)[C@@H](O)C[C@]2(C)[C@@]1(OC(=O)c1ccco1)C(=O)O` (stereo partly drawn) [Metabolite (X)], for which the EC50 in the data set on NFκB was greater than 1 µM. For the same molecule, at glucocorticoid receptor, the “fold less active than the parent compound” value is recorded as greater than 1000 fold.
